Patent US12391737B2, “Soluble NPY2 receptor agonists” (Boehringer Ingelheim International GmbH, priority 2020, dated 2025)
*1 amine or outer side, *2 acyl side, *3 side chain or, on linkers, in order; H or OH if unused. Where a SMILES comes first, the peptide text is derived from it. Side-chain parts run from the residue outwards. The star is where a group is joined. C18 diacid = O=C(O)CCCCCCCCCCCCCCCCC(=O)*; γGlu = O=C(O)[C@H](CCC(=O)[*:2])N[*:1]; Isovaleryl = CC(C)CC(=O)*; Ahx = NCCCCCC(=O)O

How the values were obtained:
Solubility determination = details: for Sol6: pH 6; for Sol7: pH 7
Procedure, shortened: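 Solubility is derived from the ratio of reversed-phase peak areas, filtered sample over a control dissolved at 1 mg/ml in 50% acetonitrile. Peptides are agitated for 2 hours at room temperature in 0.1 M sodium diphosphate at pH 6.4 or 7.0, aiming at 10 mg/ml.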

[1] = molecular target: T1, Human Neuropeptide Y2 Receptor (Homo sapiens, UniProt P49146); assay: Radioligand binding competition assay (RLB); details: Table 3, 125I-PYY(1-36) competition; read-out: Ki
T1 construct: purchased CHEMICON HTS066M
T1 sequence (P49146 1-381): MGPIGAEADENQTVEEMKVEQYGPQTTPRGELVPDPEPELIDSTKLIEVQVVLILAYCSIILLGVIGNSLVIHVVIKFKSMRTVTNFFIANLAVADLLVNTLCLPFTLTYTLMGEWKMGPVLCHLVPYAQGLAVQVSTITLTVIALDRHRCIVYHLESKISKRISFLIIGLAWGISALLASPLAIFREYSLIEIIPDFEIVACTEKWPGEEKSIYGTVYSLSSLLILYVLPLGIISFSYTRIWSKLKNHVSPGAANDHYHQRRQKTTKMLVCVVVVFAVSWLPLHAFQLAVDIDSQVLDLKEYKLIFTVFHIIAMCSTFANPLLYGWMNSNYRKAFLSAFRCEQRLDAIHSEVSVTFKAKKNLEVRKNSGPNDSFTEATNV
Procedure, shortened: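 Displacement of radioligand is measured after 2 h at room temperature with receptor membranes in Mg2+/Ca2+ HEPES buffer, pH 7.4. Filter-bound radioactivity is counted and IC50 obtained from curve fitting.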

Row | SMILES | Sol6 (Solubility determination) [mg/mL] | Sol7 (Solubility determination) [mg/mL] | Ki [1] [nM]
1 | CC(C)CC(=O)N[C@@H](C)C(=O)N1CCC[C@H]1C(=O)N[C@@H](CCC(=O)O)C(=O)N[C@@H](CCCCNC(=O)CCCCCNC(=O)CC[C@H](NC(=O)CCCCCCCCCCCCCCCCC(=O)O)C(=O)O)C(=O)N1CCC[C@H]1C(=O)N[C@@H](CCC(=O)O)C(=O)N[C@@H](CCC(=O)O)C(=O)N[C@@H](CC(=O)O)C(=O)N[C@@H](C)C(=O)N[C@@H](CCC(=O)O)C(=O)N1CCC[C@H]1C(=O)N[C@@H](CCC(=O)O)C(=O)N[C@@H](CCC(=O)O)C(=O)N[C@H](C(=O)N[C@@H](CCC(N)=O)C(=O)N[C@@H](CCCNC(=N)N)C(=O)N[C@@H](Cc1ccc(O)cc1)C(=O)N[C@@H](Cc1ccc(O)cc1)C(=O)N[C@H](C(=O)N[C@@H](CO)C(=O)N[C@@H](CC(C)C)C(=O)N[C@@H](CCCNC(=N)N)C(=O)N[C@@H](Cc1c[nH]cn1)C(=O)N[C@@H](Cc1ccc(O)cc1)C(=O)N[C@@H](Cc1ccc(O)cc1)C(=O)N[C@@H](CC(N)=O)C(=O)N[C@@H](Cc1c[nH]c2ccccc12)C(=O)N[C@@H](CC(C)C)C(=O)N[C@H](C(=O)N[C@@H](CCCNC(=N)N)C(=O)N[C@@H](CCC(N)=O)C(=O)N[C@@H](CCCNC(=N)N)C(=O)N[C@@H](Cc1ccc(O)cc1)C(N)=O)[C@@H](C)O)C(C)C)[C@@H](C)O [Compound 107, N{alpha-4}-(3-methylbutanoyl)-N{epsilon-7}-(6-[(4S)-4-carboxy-4-(17-carboxyheptadecanamido)butanamido]hexanoyl)-[4A,7K,9E,13E,17T,18Q,22V,28Y,30W,31L]-hPYY(4-36)] | 11.0 | 11.0 | 5.13
2 | CC(C)CC(=O)N[C@@H](C)C(=O)N1CCC[C@H]1C(=O)N[C@@H](CCC(=O)O)C(=O)N[C@@H](CCCCNC(=O)CCCCCNC(=O)CC[C@H](NC(=O)CCCCCCCCCCCCCCCCC(=O)O)C(=O)O)C(=O)N1CCC[C@H]1C(=O)N[C@@H](CCC(=O)O)C(=O)N[C@@H](C)C(=O)N[C@@H](CC(=O)O)C(=O)N[C@@H](C)C(=O)N[C@@H](CO)C(=O)N[C@@H](CCC(=O)O)C(=O)N[C@@H](CCC(=O)O)C(=O)N[C@@H](CCC(=O)O)C(=O)N[C@@H](CC(C)C)C(=O)N[C@@H](CCC(N)=O)C(=O)N[C@@H](CCCNC(=N)N)C(=O)N[C@@H](Cc1ccc(O)cc1)C(=O)N[C@@H](Cc1ccc(O)cc1)C(=O)N[C@H](C(=O)N[C@@H](CO)C(=O)N[C@@H](CC(C)C)C(=O)N[C@@H](CCCNC(=N)N)C(=O)N[C@@H](Cc1c[nH]cn1)C(=O)N[C@@H](Cc1ccc(O)cc1)C(=O)N[C@@H](Cc1ccc(O)cc1)C(=O)N[C@@H](CC(N)=O)C(=O)N[C@@H](Cc1c[nH]c2ccccc12)C(=O)N[C@@H](CC(C)C)C(=O)N[C@H](C(=O)N[C@@H](CCCNC(=N)N)C(=O)N[C@@H](CCC(N)=O)C(=O)N[C@@H](CCCNC(=N)N)C(=O)N[C@@H](Cc1ccc(O)cc1)C(N)=O)[C@@H](C)O)C(C)C [Compound 108, N{alpha-4}-(3-methylbutanoyl)-N{epsilon-7}-(6-[(4S)-4-carboxy-4-(17-carboxyheptadecanamido)butanamido]hexanoyl)-[4A,7K,9E,10A,14E,18Q,22V,28Y,30W,31L]-hPYY(4-36)] | 8.6 | 8.0 | 2.77
3 | CC(C)CC(=O)N[C@@H](C)C(=O)N1CCC[C@H]1C(=O)N[C@@H](CCC(=O)O)C(=O)N[C@@H](CCCCNC(=O)CCCCCNC(=O)CC[C@H](NC(=O)CCCCCCCCCCCCCCCCC(=O)O)C(=O)O)C(=O)N1CCC[C@H]1C(=O)N[C@@H](CCC(=O)O)C(=O)N[C@@H](CCC(=O)O)C(=O)N[C@@H](CC(=O)O)C(=O)N[C@@H](CC(C)C)C(=O)N[C@H](C(=O)N1CCC[C@H]1C(=O)N[C@@H](CCC(=O)O)C(=O)N[C@@H](CCC(=O)O)C(=O)N[C@@H](CC(C)C)C(=O)N[C@@H](CCC(N)=O)C(=O)N[C@@H](CCCNC(=N)N)C(=O)N[C@@H](Cc1ccc(O)cc1)C(=O)N[C@@H](Cc1ccc(O)cc1)C(=O)N[C@H](C(=O)N[C@@H](CO)C(=O)N[C@@H](CC(C)C)C(=O)N[C@@H](CCCNC(=N)N)C(=O)N[C@@H](Cc1c[nH]cn1)C(=O)N[C@@H](Cc1ccc(O)cc1)C(=O)N[C@@H](Cc1ccc(O)cc1)C(=O)N[C@@H](CC(N)=O)C(=O)N[C@@H](Cc1c[nH]c2ccccc12)C(=O)N[C@@H](CC(C)C)C(=O)N[C@H](C(=O)N[C@@H](CCCNC(=N)N)C(=O)N[C@@H](CCC(N)=O)C(=O)N[C@@H](CCCNC(=N)N)C(=O)N[C@@H](Cc1ccc(O)cc1)C(N)=O)[C@@H](C)O)C(C)C)[C@@H](C)O [Compound 109, N{alpha-4}-(3-methylbutanoyl)-N{epsilon-7}-(6-[(4S)-4-carboxy-4-(17-carboxyheptadecanamido)butanamido]hexanoyl)-[4A,7K,9E,12L,13T,18Q,22V,28Y,30W,31L]-hPYY(4-36)] | 10.0 | 8.5 | 14
4 | CC(C)CC(=O)N[C@@H](C)C(=O)N1CCC[C@H]1C(=O)N[C@@H](CCC(=O)O)C(=O)N[C@@H](CCCCNC(=O)CCCCCNC(=O)CC[C@H](NC(=O)CCCCCCCCCCCCCCCCC(=O)O)C(=O)O)C(=O)N1CCC[C@H]1C(=O)N[C@@H](CCC(=O)O)C(=O)N[C@@H](CCC(=O)O)C(=O)N[C@@H](CC(=O)O)C(=O)N[C@@H](C)C(=O)N[C@H](C(=O)N1CCC[C@H]1C(=O)N[C@@H](CCC(=O)O)C(=O)N[C@@H](CCC(=O)O)C(=O)N[C@@H](CC(C)C)C(=O)N[C@@H](CCC(N)=O)C(=O)N[C@@H](CCCNC(=N)N)C(=O)N[C@@H](Cc1ccc(O)cc1)C(=O)N[C@@H](Cc1ccc(O)cc1)C(=O)N[C@H](C(=O)N[C@@H](CCC(=O)O)C(=O)N[C@@H](CC(C)C)C(=O)N[C@@H](CCCNC(=N)N)C(=O)N[C@@H](Cc1c[nH]cn1)C(=O)N[C@@H](Cc1ccc(O)cc1)C(=O)N[C@@H](Cc1ccc(O)cc1)C(=O)N[C@@H](CC(N)=O)C(=O)N[C@@H](Cc1c[nH]c2ccccc12)C(=O)N[C@@H](CC(C)C)C(=O)N[C@H](C(=O)N[C@@H](CCCNC(=N)N)C(=O)N[C@@H](CCC(N)=O)C(=O)N[C@@H](CCCNC(=N)N)C(=O)N[C@@H](Cc1ccc(O)cc1)C(N)=O)[C@@H](C)O)C(C)C)[C@@H](C)O [Compound 110, N{alpha-4}-(3-methylbutanoyl)-N{epsilon-7}-(6-[(4S)-4-carboxy-4-(17-carboxyheptadecanamido)butanamido]hexanoyl)-[4A,7K,9E,13T,18Q,22V,23E,28Y,30W,31L]-hPYY(4-36)] | 10.0 | >10.0 | 6.42
5 | CC[C@H](C)[C@H](NC(=O)[C@H](CCC(=O)O)NC(=O)[C@H](CCC(=O)O)NC(=O)[C@@H]1CCCN1C(=O)[C@H](CCC(=O)O)NC(=O)[C@H](C)NC(=O)[C@H](C)NC(=O)[C@H](C)NC(=O)[C@H](CCC(=O)O)NC(=O)[C@@H]1CCCN1C(=O)[C@H](CCCCNC(=O)CCCCCNC(=O)CC[C@H](NC(=O)CCCCCCCCCCCCCCCCC(=O)O)C(=O)O)NC(=O)[C@H](C)NC(=O)[C@@H]1CCCN1C(=O)[C@H](C)NC(=O)CC(C)C)C(=O)N[C@@H](CCC(N)=O)C(=O)N[C@@H](CCCNC(=N)N)C(=O)N[C@@H](Cc1ccc(O)cc1)C(=O)N[C@@H](Cc1ccc(O)cc1)C(=O)N[C@H](C(=O)N[C@@H](CO)C(=O)N[C@@H](CC(C)C)C(=O)N[C@@H](CCCNC(=N)N)C(=O)N[C@@H](Cc1c[nH]cn1)C(=O)N[C@@H](Cc1ccc(O)cc1)C(=O)N[C@@H](Cc1ccc(O)cc1)C(=O)N[C@@H](CC(N)=O)C(=O)N[C@@H](Cc1c[nH]c2ccccc12)C(=O)N[C@@H](CC(C)C)C(=O)N[C@H](C(=O)N[C@@H](CCCNC(=N)N)C(=O)N[C@@H](CCC(N)=O)C(=O)N[C@@H](CCCNC(=N)N)C(=O)N[C@@H](Cc1ccc(O)cc1)C(N)=O)[C@@H](C)O)C(C)C [Compound 111, N{alpha-4}-(3-methylbutanoyl)-N{epsilon-7}-(6-[(4S)-4-carboxy-4-(17-carboxyheptadecanamido)butanamido]hexanoyl)-[4A,6A,7K,9E,10A,11A,13E,17I,18Q,22V,28Y,30W,31L]-hPYY(4-36)] (Isovaleryl-APAK([Ahx-γGlu-C18 diacid])PEAAAEPEEIQRYYVSLRHYYNWLTRQRY-NH2) | 0.0 | 0.0 | 2.14
